According to patent EP0661044A1 (priority 1991, dated 1993):

Test: Entrapment of daunorubicin in distearoyl phosphatidylcholine-cholesterol vesicles using ethylenediamine citrate (ion-exchange loading)
Format: physicochemical
Conditions: lipid:drug ratio approximately at least 16:1 (mol/mol as printed); 65°C for about 10 minutes; typical value
Protocol: A dry powder containing a homogenous dispersion of cholesterol and distearoylphosphatidylcholine at a 1:2 molar ratio was prepared by evaporation from a 1:1 chloroform/methanol solution. […] The lipid concentration in the resulting suspension was about 20 to 25 mg/ml. This mixture was then heated to 65°C. Next, while maintaining that temperature, the mixture was homogenized using a sonicator to produce a suspension of small unilamellar vesicles. The vesicles thus obtained had diameters principally in the range of about 40 to 80 nm with little or no particles in excess of 100 nm.
Following homogenization, the mixture underwent a buffer exchange to remove the external, unentrapped, ethylenediamine citrate. This was accomplished by subjecting the mixture to tangential flow ultrafiltration. This process removes water and small molecular weight solutes while retaining lipid vesicles and their contents. Using this process, the lactose/ethylenediamine citrate buffer external to the vesicles was replaced with 250 mM lactose/50 mM glycine. The vesicle preparation was heated to about 65°C and an amount of daunorubicin (base or suitable salt form) was added to yield a lipid to drug ratio in the range of about 16:1 to 19:1 or more (w/w), but preferably 17.4:1. […]

Compound: COc1cccc2c1C(=O)c1c(O)c3c(c(O)c1C2=O)C[C@@](O)(C(C)=O)C[C@@H]3O[C@H]1C[C@H](N)[C@H](O)[C@H](C)O1 [daunorubicin]
- added daunorubicin vesicle entrapped as daunorubicin-citrate: greater than 90%
